Experimental data: PubChem BioAssay AID2060898 (Molecular Pharmacology Branch, DTP, NCI, 2025)
“And” between values parts separate entries of the source, which are not always exact repeats. Equal values may be shown once.

System: 616215-338-R-J1-PDC complex spheroid viability
Assay: Anticancer human tumor 616215-338-R-J1-PDC patient-derived colon adenocarcinoma cell line growth inhibition [RAS]
Conditions: for viability, T/C: stronger effect = lower value; active = viability on the fitted dose curve at most 10% of control; inactive = the rest
Method in brief: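 Tumour cells grown as complex spheroids with HUVEC endothelial cells and mesenchymal stem cells, treated with RAS pathway inhibitor combinations. Each agent spans half-log steps from near clinical Cmax, or 10 microM where Cmax is unknown.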

[1] = curve of first compound, second compound 0.00316 µM
[2] = curve of first compound, second compound 0.01 µM
[3] = curve of first compound, second compound 0.0316 µM
[4] = curve of first compound, second compound 0.1 µM
[5] = curve of first compound, second compound 0.316 µM
[6] = curve of first compound, second compound 1 µM
[7] = second compound 0.00316 µM, first compound 0.0316 µM
[8] = second compound 0.00316 µM, first compound 0.1 µM
[9] = second compound 0.00316 µM, first compound 0.316 µM
[10] = second compound 0.00316 µM, first compound 1 µM
[11] = second compound 0.00316 µM, first compound 3.16 µM
[12] = second compound 0.00316 µM, first compound 10 µM
[13] = second compound 0.01 µM, first compound 0.0316 µM
[14] = second compound 0.01 µM, first compound 0.1 µM
[15] = second compound 0.01 µM, first compound 0.316 µM
[16] = second compound 0.01 µM, first compound 1 µM
[17] = second compound 0.01 µM, first compound 3.16 µM
[18] = second compound 0.01 µM, first compound 10 µM
[19] = second compound 0.0316 µM, first compound 0.0316 µM
[20] = second compound 0.0316 µM, first compound 0.1 µM
[21] = second compound 0.0316 µM, first compound 0.316 µM
[22] = second compound 0.0316 µM, first compound 1 µM
[23] = second compound 0.0316 µM, first compound 3.16 µM
[24] = second compound 0.0316 µM, first compound 10 µM
[25] = second compound 0.1 µM, first compound 0.0316 µM
[26] = second compound 0.1 µM, first compound 0.1 µM
[27] = second compound 0.1 µM, first compound 0.316 µM
[28] = second compound 0.1 µM, first compound 1 µM
[29] = second compound 0.1 µM, first compound 3.16 µM
[30] = second compound 0.1 µM, first compound 10 µM
[31] = second compound 0.316 µM, first compound 0.0316 µM
[32] = second compound 0.316 µM, first compound 0.1 µM
[33] = second compound 0.316 µM, first compound 0.316 µM
[34] = second compound 0.316 µM, first compound 1 µM
[35] = second compound 0.316 µM, first compound 3.16 µM
[36] = second compound 0.316 µM, first compound 10 µM
[37] = second compound 1 µM, first compound 0.0316 µM
[38] = second compound 1 µM, first compound 0.1 µM
[39] = second compound 1 µM, first compound 0.316 µM
[40] = second compound 1 µM, first compound 1 µM
[41] = second compound 1 µM, first compound 3.16 µM
[42] = second compound 1 µM, first compound 10 µM
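Also: spheroids exposed to agents for seven days before viability readout.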
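For viability, T/C in this document: 100% = DMSO vehicle control viability.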

Cc1nc(N2CCC3(CC2)COC(C)C3N)c(CO)nc1Sc1ccnc(N)c1Cl (stereo not given)
> 10 µM: IC50 (curve of compound)
inactive: viability, T/C (compound 0.0316 µM) 105% (2×) and 103% and 97.3% | viability, T/C (compound 0.1 µM) 103% (2×) and 106% and 97.7% | viability, T/C (compound 0.316 µM) 109% [middle of 4 runs] | viability, T/C (compound 1 µM) 108% [middle of 4 runs] | viability, T/C (compound 3.16 µM) 86.9% [middle of 4 runs] | viability, T/C (compound 10 µM) 85.4% [middle of 4 runs]

CC1(O)CCCC1n1c(=O)c(C(F)F)cc2cnc(NC3CCN(S(C)(=O)=O)CC3)nc21 (stereo not given)
2.6% [middle of 4 runs]: viability, T/C (compound 10 µM)
1.23 µM [middle of 4 runs]: IC50 (curve of compound)
inactive: viability, T/C (compound 0.0316 µM) 112% [middle of 4 runs] | viability, T/C (compound 0.1 µM) 103% [middle of 4 runs] | viability, T/C (compound 0.316 µM) 59.3% [middle of 4 runs] | viability, T/C (compound 1 µM) 56.1% [middle of 4 runs] | viability, T/C (compound 3.16 µM) 48.9% [middle of 4 runs]

C=CC(=O)N1CCN(c2nc(OCC3CCCN3C)nc3c(F)c(-c4nc(N)cc(C)c4C(F)(F)F)c(Cl)cc23)C(C)C1 (stereo not given)
inactive: viability, T/C (compound 0.00316 µM) 100% [middle of 12 runs] | viability, T/C (compound 0.01 µM) 102% [middle of 12 runs] | viability, T/C (compound 0.0316 µM) 99.4% [middle of 12 runs] | viability, T/C (compound 0.1 µM) 102% [middle of 12 runs] | viability, T/C (compound 0.316 µM) 104% [middle of 12 runs] | viability, T/C (compound 1 µM) 103% [middle of 12 runs]
> 1 µM: IC50 (compound alone, run of 06/10/2024) | IC50 (curve of compound)

CC(C)n1nc(-c2ccc3oc(N)nc3c2)c2c(N)ncnc21 + CCn1c(-c2cc(N3CCN(C)CC3)cnc2C(C)OC)c2c3cc(ccc31)-c1csc(n1)CC(NC(=O)C1CC1C)C(=O)N1CCCC(N1)C(=O)OCC(C)(C)C2
< 0.000316 µM: IC50 (curve of first compound, second compound 0.03 µM) | IC50 (curve of first compound, second compound 0.0949 µM) | IC50 (curve of first compound, second compound 0.3 µM)
0.0428 µM: IC50 (curve of first compound, second compound 0.00949 µM)
inactive: viability, T/C (second compound 0.000949 µM, first compound 0.000316 µM) 103% | viability, T/C (second compound 0.000949 µM, first compound 0.001 µM) 93.7% | viability, T/C (second compound 0.000949 µM, first compound 0.00316 µM) 110% | viability, T/C (second compound 0.000949 µM, first compound 0.01 µM) 116% | viability, T/C (second compound 0.000949 µM, first compound 0.0316 µM) 118% | viability, T/C (second compound 0.000949 µM, first compound 0.1 µM) 63.8% | viability, T/C (second compound 0.003 µM, first compound 0.000316 µM) 114% | viability, T/C (second compound 0.003 µM, first compound 0.001 µM) 108% | viability, T/C (second compound 0.003 µM, first compound 0.00316 µM) 108% | viability, T/C (second compound 0.003 µM, first compound 0.01 µM) 103% | viability, T/C (second compound 0.003 µM, first compound 0.0316 µM) 86.2% | viability, T/C (second compound 0.003 µM, first compound 0.1 µM) 39.2% | viability, T/C (second compound 0.00949 µM, first compound 0.000316 µM) 77.2% | viability, T/C (second compound 0.00949 µM, first compound 0.001 µM) 71.4% | viability, T/C (second compound 0.00949 µM, first compound 0.00316 µM) 64.5% | viability, T/C (second compound 0.00949 µM, first compound 0.01 µM) 78.8% | viability, T/C (second compound 0.00949 µM, first compound 0.0316 µM) 54.8% | viability, T/C (second compound 0.00949 µM, first compound 0.1 µM) 36.4% | viability, T/C (second compound 0.03 µM, first compound 0.000316 µM) 41% | viability, T/C (second compound 0.03 µM, first compound 0.001 µM) 51.2% | viability, T/C (second compound 0.03 µM, first compound 0.00316 µM) 39.5% | viability, T/C (second compound 0.03 µM, first compound 0.01 µM) 37.3% | viability, T/C (second compound 0.03 µM, first compound 0.0316 µM) 39% | viability, T/C (second compound 0.03 µM, first compound 0.1 µM) 25% | viability, T/C (second compound 0.0949 µM, first compound 0.000316 µM) 41% | viability, T/C (second compound 0.0949 µM, first compound 0.001 µM) 39.3% | viability, T/C (second compound 0.0949 µM, first compound 0.00316 µM) 31.8% | viability, T/C (second compound 0.0949 µM, first compound 0.01 µM) 30.9% | viability, T/C (second compound 0.0949 µM, first compound 0.0316 µM) 30.9% | viability, T/C (second compound 0.0949 µM, first compound 0.1 µM) 21.3% | viability, T/C (second compound 0.3 µM, first compound 0.000316 µM) 35.9% | viability, T/C (second compound 0.3 µM, first compound 0.001 µM) 31.1% | viability, T/C (second compound 0.3 µM, first compound 0.00316 µM) 35.9% | viability, T/C (second compound 0.3 µM, first compound 0.01 µM) 30.1% | viability, T/C (second compound 0.3 µM, first compound 0.0316 µM) 27.8% | viability, T/C (second compound 0.3 µM, first compound 0.1 µM) 22.8%
0.0771 µM: IC50 (curve of first compound, second compound 0.003 µM)
> 0.1 µM: IC50 (curve of first compound, second compound 0.000949 µM)

CC(C)NCC(C(=O)N1CCN(c2ncnc3c2C(C)CC3O)CC1)c1ccc(Cl)cc1 (stereo not given) + C=CC(=O)N1CCN(c2nc(OCC3CCCN3C)nc3c(F)c(-c4nc(N)cc(C)c4C(F)(F)F)c(Cl)cc23)C(C)C1
9.74 µM: IC50 [5]
9.55 µM: IC50 [6]
> 10 µM: IC50 [3]
9.08 µM: IC50 [1]
10 µM: IC50 [4]
9.02 µM: IC50 [2]
inactive: viability, T/C [7] 97.1% | viability, T/C [8] 110% | viability, T/C [9] 106% | viability, T/C [10] 112% | viability, T/C [11] 95% | viability, T/C [12] 45.9% | viability, T/C [13] 105% | viability, T/C [14] 98.1% | viability, T/C [15] 102% | viability, T/C [16] 116% | viability, T/C [17] 95.1% | viability, T/C [18] 45.5% | viability, T/C [19] 110% | viability, T/C [20] 114% | viability, T/C [21] 105% | viability, T/C [22] 115% | viability, T/C [23] 99.9% | viability, T/C [24] 54% | viability, T/C [25] 111% | viability, T/C [26] 106% | viability, T/C [27] 108% | viability, T/C [28] 107% | viability, T/C [29] 98.2% | viability, T/C [30] 50% | viability, T/C [31] 103% | viability, T/C [32] 106% | viability, T/C [33] 104% | viability, T/C [34] 108% | viability, T/C [35] 93.4% | viability, T/C [36] 48.5% | viability, T/C [37] 104% | viability, T/C [38] 94.9% | viability, T/C [39] 103% | viability, T/C [40] 117% | viability, T/C [41] 104% | viability, T/C [42] 47.7%

Cc1nc(N2CCC3(CC2)COC(C)C3N)c(CO)nc1Sc1ccnc(N)c1Cl (stereo not given) + C=CC(=O)N1CCN(c2nc(OCC3CCCN3C)nc3c(F)c(-c4nc(N)cc(C)c4C(F)(F)F)c(Cl)cc23)C(C)C1
inactive: viability, T/C [7] 93.3% | viability, T/C [8] 101% | viability, T/C [9] 125% | viability, T/C [10] 95.6% | viability, T/C [11] 98.1% | viability, T/C [12] 84.7% | viability, T/C [13] 114% | viability, T/C [14] 111% | viability, T/C [15] 110% | viability, T/C [16] 110% | viability, T/C [17] 90.2% | viability, T/C [18] 83.7% | viability, T/C [19] 107% | viability, T/C [20] 110% | viability, T/C [21] 114% | viability, T/C [22] 99.3% | viability, T/C [23] 109% | viability, T/C [24] 80.6% | viability, T/C [25] 98.7% | viability, T/C [26] 113% | viability, T/C [27] 115% | viability, T/C [28] 119% | viability, T/C [29] 97.3% | viability, T/C [30] 83.2% | viability, T/C [31] 105% | viability, T/C [32] 99% | viability, T/C [33] 129% | viability, T/C [34] 102% | viability, T/C [35] 106% | viability, T/C [36] 73% | viability, T/C [37] 97.7% | viability, T/C [38] 110% | viability, T/C [39] 99.7% | viability, T/C [40] 109% | viability, T/C [41] 89.4% | viability, T/C [42] 75.4%
> 10 µM: IC50 [1] | IC50 [2] | IC50 [3] | IC50 [4] | IC50 [5] | IC50 [6]

CC(C)n1nc(-c2ccc3oc(N)nc3c2)c2c(N)ncnc21
inactive: viability, T/C (compound 0.000316 µM) 99.5% (2×) and 101% and 97.1% | viability, T/C (compound 0.001 µM) 105% [middle of 4 runs] | viability, T/C (compound 0.00316 µM) 94.6% and 107% (2×) and 98% | viability, T/C (compound 0.01 µM) 107% [middle of 4 runs] | viability, T/C (compound 0.0316 µM) 110% [middle of 4 runs] | viability, T/C (compound 0.1 µM) 75.2% [middle of 4 runs]
> 0.1 µM: IC50 (curve of compound)
